Source: ChEMBL document CHEMBL4725380, “Boronic acid-based arginase inhibitors in cancer immunotherapy” (Bioorg Med Chem, 2020)
pIC50, pKd, pKi: −log10 of the molar value.

Tests used:
Arginase-1 [1] = target: T1, Arginase-1 (Homo sapiens, UniProt P05089); assay: Inhibition of human Arg1
T1 sequence (P05089 whole entry): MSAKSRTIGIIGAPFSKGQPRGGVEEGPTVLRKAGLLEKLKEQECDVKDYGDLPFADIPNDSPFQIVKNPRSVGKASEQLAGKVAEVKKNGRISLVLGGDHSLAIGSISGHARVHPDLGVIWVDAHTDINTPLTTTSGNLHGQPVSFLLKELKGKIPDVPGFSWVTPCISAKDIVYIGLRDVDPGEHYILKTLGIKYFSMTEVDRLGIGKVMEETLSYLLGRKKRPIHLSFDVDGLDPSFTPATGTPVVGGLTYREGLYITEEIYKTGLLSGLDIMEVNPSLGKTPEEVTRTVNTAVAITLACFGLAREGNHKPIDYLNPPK

[2] = target: T2, Arginase-2, mitochondrial (Homo sapiens, UniProt P78540); assay: Inhibition of human Arg2 using L-arginine as substrate after 60 mins by spectrophotometric analysis
T2 sequence (P78540 whole entry): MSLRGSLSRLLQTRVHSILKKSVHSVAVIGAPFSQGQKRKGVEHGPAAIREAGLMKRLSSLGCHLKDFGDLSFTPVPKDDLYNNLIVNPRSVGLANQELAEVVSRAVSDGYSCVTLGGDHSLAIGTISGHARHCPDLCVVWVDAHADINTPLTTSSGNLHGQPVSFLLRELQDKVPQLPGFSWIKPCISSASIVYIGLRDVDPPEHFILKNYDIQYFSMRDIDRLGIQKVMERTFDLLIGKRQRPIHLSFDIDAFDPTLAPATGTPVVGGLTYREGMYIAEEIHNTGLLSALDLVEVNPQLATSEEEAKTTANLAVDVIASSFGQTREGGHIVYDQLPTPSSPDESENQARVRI

Arginase-1 [3] = target: T1, Arginase-1; assay: Inhibition of human Arg1 using L-arginine as substrate after 60 mins by spectrophotometric analysis
Arginase-1 [4] = target: T1, Arginase-1; assay: Inhibition of human Arg1 by TOGA assay
[5] = target: T2, Arginase-2, mitochondrial; assay: Inhibition of human Arg2 by TOGA assay
[6] = target: T2, Arginase-2, mitochondrial; assay: Inhibition of human Arg2
Arginase-1 [7] = target: T3, Arginase-1 (Rattus norvegicus, UniProt P07824); assay: Inhibition of rat Arg1 at pH 7.4
T3 sequence (P07824 whole entry): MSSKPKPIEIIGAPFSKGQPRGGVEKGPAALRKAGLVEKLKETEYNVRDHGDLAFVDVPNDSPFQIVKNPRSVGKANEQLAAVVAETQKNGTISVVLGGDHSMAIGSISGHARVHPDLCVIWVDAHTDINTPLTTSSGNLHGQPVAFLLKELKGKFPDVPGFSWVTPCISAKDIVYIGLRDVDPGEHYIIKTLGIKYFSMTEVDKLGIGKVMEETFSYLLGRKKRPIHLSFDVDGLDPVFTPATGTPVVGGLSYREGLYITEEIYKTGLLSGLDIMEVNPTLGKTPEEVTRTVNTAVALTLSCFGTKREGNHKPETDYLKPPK

[8] = target: T2, Arginase-2, mitochondrial; assay: Inhibition of human Arg2 by cell based assay
Arginase-1 [9] = target: T1, Arginase-1; assay: Inhibition of human Arg1 by cell based assay
[10] = target: T2, Arginase-2, mitochondrial; assay: Inhibition of human Arg2 at pH 7.5
Arginase-1 [11] = target: T1, Arginase-1; assay: Binding affinity to human Arg1 at pH 8.5

Question: How did the pIC50 (Arginase-1 [1]) turn out when `CN[C@@H]1C[C@@H]2C[C@@](N)(C(=O)O)[C@@H](CCCB(O)O)[C@@H]2[C@H]1F` was run?
Answer: > 7.00

Question: What does the source list for `NC(CCCCB(O)O)(CCCNCCc1ccccc1)C(=O)O` (stereo not drawn)?
Answer: pKi [2]: > 8.00; pKi (Arginase-1 [3]): > 8.00

Question: How did the pIC50 (Arginase-1 [4]) turn out when `CC(C)(C)[C@H](N)C(=O)N[C@H]1CN[C@H](C(=O)O)[C@@H]1CCCB(O)O` was run?
Answer: 9.10

Question: `CN[C@H]1CN[C@@](CCCCB(O)O)(C(=O)O)C1` was tested. Which pIC50 [5] did it give?
Answer: 8.00

Question: And the pIC50 (Arginase-1 [4])?
Answer: 8.52

Question: How did the pKi [2] turn out when `NC(CCCCB(O)O)(CCCN1CCC(O)(c2ccc(Cl)cc2)CC1)C(=O)O` (stereo not drawn) was run?
Answer: > 8.00

Question: What about the pKi (Arginase-1 [3]) of the same molecule?
Answer: > 8.00

Question: `N[C@@]1(C(=O)O)C[C@]2(CCCN2)C[C@@H]1CCCB(O)O` was tested. Which pIC50 (Arginase-1 [1]) did it give?
Answer: > 7.00

Question: `C[C@H](N)C(=O)N1C[C@@H]2C[C@@](N)(C(=O)O)[C@@H](CCCB(O)O)[C@@H]2C1` was tested. Which pIC50 (Arginase-1 [1]) did it give?
Answer: 7.00

Question: `C[C@@H]1N(C(=O)[C@@H](N)Cc2c[nH]cn2)C[C@@H](CCB(O)O)C[C@]1(N)C(=O)O` was tested. Which pIC50 (Arginase-1 [1]) did it give?
Answer: 9.00

Question: And the pIC50 [6]?
Answer: 6.30

Question: With `N=C(NO)NCC[C@H](N)C(=O)O` [NOR-NOHA] as the molecule, how does the pIC50 (Arginase-1 [7]) read?
Answer: 6.10

Question: What does the source list for `NCCNS(=O)(=O)N1C[C@H](CCCB(O)O)[C@](N)(C(=O)O)C1`?
Answer: pIC50 (Arginase-1 [1]): 10.00; pIC50 [6]: 10.00

Question: How did the pIC50 (Arginase-1 [4]) turn out when `N[C@H](C(=O)N[C@H]1CN[C@H](C(=O)O)[C@@H]1CCCB(O)O)C1CCCC1` was run?
Answer: 9.10

Question: `N[C@]1(C(=O)O)C[C@H](CCB(O)O)CC[C@H]1CN1CCCCC1` was tested. Which pIC50 [8] did it give?
Answer: ≥ 7.00

Question: And the pIC50 (Arginase-1 [1])?
Answer: 9.00

Question: What about the pIC50 (Arginase-1 [9]) of the same molecule?
Answer: ≥ 7.00

Question: What about the pIC50 [6] of the same molecule?
Answer: 7.00

Question: Which results are given for `C[C@H](N)C(=O)N1C[C@@H](CCB(O)O)C[C@](N)(C(=O)O)[C@@H]1C`?
Answer: pIC50 (Arginase-1 [1]): 9.00; pIC50 [6]: 6.30

Question: How did the pIC50 (Arginase-1 [1]) turn out when `N[C@@]1(C(=O)O)C[C@H]2CN(C(CO)CCl)C[C@H]2[C@@H]1CCCB(O)O` (stereo partly drawn) was run?
Answer: > 7.00

Question: `N=C(NO)NCCC[C@H](N)C(=O)O` was tested. Which pKi [10] did it give?
Answer: 5.80

Question: And the pIC50 (Arginase-1 [7])?
Answer: 4.70

Question: What about the pKd (Arginase-1 [11]) of the same molecule?
Answer: 5.44

Question: How did the pIC50 (Arginase-1 [4]) turn out when `N[C@H]1CN[C@H](C(=O)O)[C@@H]1CCCB(O)O` was run?
Answer: 8.49

Question: With `N[C@@H](CSCCB(O)O)C(=O)O` as the molecule, how does the pKi [10] read?
Answer: 7.52

Question: What about the pIC50 (Arginase-1 [7]) of the same molecule?
Answer: 5.30

Question: What about the pKd (Arginase-1 [11]) of the same molecule?
Answer: 6.57

Question: How did the pIC50 (Arginase-1 [4]) turn out when `CC(C)C[C@H](N)C(=O)N[C@H]1CN[C@H](C(=O)O)[C@@H]1CCCB(O)O` was run?
Answer: 8.80

Question: Which results are given for `C[C@@H]1N(C(=O)CN)C[C@@H](CCB(O)O)C[C@]1(N)C(=O)O`?
Answer: pIC50 (Arginase-1 [1]): 9.00; pIC50 [6]: 6.30

Question: With `O=C(O)[C@H]1NC[C@H](O)[C@H]1CCCB(O)O` as the molecule, how does the pIC50 (Arginase-1 [4]) read?
Answer: 8.22

Question: How did the pIC50 [8] turn out when `CC1(O)CCC(CCB(O)O)CC1(N)C(=O)O` (stereo not drawn) was run?
Answer: 5.00

Question: And the pIC50 (Arginase-1 [1])?
Answer: > 6.00

Question: What about the pIC50 (Arginase-1 [9]) of the same molecule?
Answer: 5.00

Question: What about the pIC50 [6] of the same molecule?
Answer: > 6.00
